Experimental data taken from patent publication US20240228481A1, “NOVEL SULFONAMIDE SERIES OF QR2 INHIBITORS TO TACKLE OXIDATIVE STRESS AND COGNITIVE DECLINE” (CARMEL HAIFA UNIVERSITY ECONOMIC CORPORATION LTD., priority 2021, published 2024).
Where a name gives a salt, the structure may show the parent alone.

Assays:
5×FAD mice [1] = experiment: Weight, drinking rate and wellbeing of 5×FAD mice under treatment in drinking water; settings: for average weight: 25 days, drinking water
5×FAD mice [2] = experiment: Open field in 5×FAD mice; type: in vivo, mouse
Method: Mice were individually placed within a cage and taken to a dimly lit room containing an open field arena 50×50 cm in size. They were given 10 min prior to being placed within the arena, where for a period of 5 min they were allowed to explore. Two weeks later, this was repeated. […] The floor was either white or black, depending on mouse coat color, to allow automatic analysis of movement parameters, apart from rearing which was manually counted.

5×FAD mice [3] = experiment: Delay fear conditioning in 5×FAD mice
Method: Mice are transported to the conditioning room, which is lit by red light only, and kept there for 2 min. They were then placed inside a Habitest Operant Cage, within a Habitest Isolation Cubicle (Coulbourn), on a modular shock floor made of 16 metal grids, connected to Precision Animal Shockers (Coulbourn) with illumination inside the cage coming from a 20 W bulb. The mice were given 2 min to explore, during which baseline freezing was measured. Then, a 20 s, 4 kHz, 80 dB tone was given, co-terminating with the start of a 2 s, 0.5 mA foot-shock, which was repeated a further two times, each having 1 min interval. Following the third, and last of these bouts, 1 min was given prior to the animals being removed from the chambers. The next day, the animals were returned to the room under the same conditions, and were placed back into the chambers, and freezing to the context was measured over the course of 5 min. The next day, the mice were once again returned to the conditioning room, except the room was lit with white light, while the chambers were darkened, the chamber floor was covered with a flat, smooth plastic cover, one of the walls was fitted with a paper sticker and the chamber was scented with diluted (10%) window cleaner (Sano). In this unfamiliar context, the protocol from the first day was repeated, except without the foot-shocks. Freezing for the cue was recorded during the tone. All measurements were taken with a Sentec stc-tb33usb-at camera, and analysis was performed with Freeze Frame software (Actimetrics).

5×FAD mice [4] = experiment: Novel object recognition in 5×FAD mice; settings: 5×FAD males
Method: Following the first exploration of the open field arena (described above), mice were returned to the same arena the next day, while the arena now contained two identical objects. Mice were allowed to explore the objects and the arena 3 times for 10 min, with an inter trial interval of 10 min. The following day one of the objects was replaced with a novel object, and the mice were returned to the arena and allowed to explore for 10 min. Mouse movement, exploration and nuzzling was automatically recorded with an Ikegami ICD-49E camera with EthoVision 14 (Noldus Information Technology). Discrimination of the novel object was assessed by calculating (time exploring novel object−time exploring familiar object)/(time exploring novel object+time exploring familiar object).

QR2 = target: T1, QR2 (Homo sapiens, UniProt P16083); experiment: QR2 enzymatic activity assay (menadione/BNAH), absorbance readout at 350 nm; type: biochemical; parameters: purchased Sigma-Aldrich
T1 sequence (P16083 1-231): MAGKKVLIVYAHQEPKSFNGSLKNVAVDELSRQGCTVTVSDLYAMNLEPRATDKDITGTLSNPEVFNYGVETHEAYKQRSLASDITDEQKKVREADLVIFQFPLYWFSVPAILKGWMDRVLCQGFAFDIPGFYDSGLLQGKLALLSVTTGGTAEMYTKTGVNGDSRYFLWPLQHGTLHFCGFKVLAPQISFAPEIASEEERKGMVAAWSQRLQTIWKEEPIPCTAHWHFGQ

[5] = Cell toxicity assay (ATP depletion, CellTiter Glo); settings: human
HEK293 cells = experiment: DCFDA ROS measurement in HEK293 cells after H2O2 insult; type: cell-based; settings: HEK293, 2 mM H2O2, 3 h
Method: FIGS. 8A-8C include vertical bar graphs showing QR2 inhibition reduces QR2 activity and ROS following induction of oxidative stress in HEK293 cells. (8A) QR2 activity is seen and is inhibited within HEK293 cells, amongst others, as measured by the rate of fluorescent co-factor oxidation. (8B) HEK293 cells seeded at 25μ 10^3 cells/well in 96-well plates were treated with 2 mM H2O2 with or without increasing doses or QR2 inhibitors for 3 h. Following incubation, the cells were stained with DCFDA for 45 min, and ROS levels were measured using a fluorimeter with ex/em 485/535 nm. N=3. (8C) ROS was measured in HCT cells, and similarly to HEK293, is reduced following QR2 inhibition. […] Data presented as mean±SEM. *p<0.05, ***p<0.0005.
The cells were harvested and resuspended in 1% clear medium (DMEM—with no phenol red, supplemented with 1% FBS, 1% L-Glutamine and 1% Penicillin-Streptomycin). A sterile poly-L-lysine-coated Nunc black, 96-well, clear flat-bottomed plate (Thermo Fisher Scientific) was seeded with 25,000 cells in 100 μL per well and incubated overnight. The next day, the medium was removed, and the wells carefully washed with PBS. […] The plate was then incubated in the dark at 37° C. for 3 h, before reading in a Tecan M200 Pro florescence microplate reader, using wavelengths Ex/Em=485 nm/535 nm.

**Q.** With `Cc1ccc(-c2cn3cccc(C)c3n2)cc1S(=O)(=O)N1CCNCC1` [YB-537, 8-methyl-2-(4-methyl-3-(piperazin-1-ylsulfonyl)phenyl)imidazo[1,2-a]pyridine hydrochloride] as the compound, how does the “adverse effects during month-long treatment” value (5×FAD mice [1]; 5×FAD both sexes, 50 mg/kg in drinking water) read?
**A.** no adverse effects were seen

**Q.** What about the average drinking rate (5×FAD mice [1]; 5×FAD females) of the same compound?
**A.** 0.170 ± 0.011 mL/g/day

**Q.** And the average weight (5×FAD mice [1]; 5×FAD females)?
**A.** 22.76 ± 0.192 g

**Q.** What about the average drinking rate (5×FAD mice [1]; 5×FAD males) of the same compound?
**A.** 0.170 ± 0.035 mL/g/day

**Q.** And the average weight (5×FAD mice [1]; 5×FAD males)?
**A.** 32.56 ± 0.279 g

**Q.** And the average velocity (5×FAD mice [2]; 5×FAD both sexes)?
**A.** 10.9 ± 0.800 cm/s

**Q.** What about the hind-limb rearing frequency (5×FAD mice [2]; 5×FAD both sexes) of the same compound?
**A.** 35.72±3.292

**Q.** And the “maximum movement bout duration” value (5×FAD mice [2]; 5×FAD both sexes)?
**A.** 8.061 ± 1.322 s

**Q.** And the meandering (5×FAD mice [2]; 5×FAD both sexes)?
**A.** 733.4±42.8 deg/cm

**Q.** What about the “proportion of time moving” value (5×FAD mice [2]; 5×FAD both sexes) of the same compound?
**A.** 81.44±1.134%

**Q.** And the total distance traveled (5×FAD mice [2]; 5×FAD both sexes)?
**A.** 3244±237.9 cm

**Q.** What about the total movement duration (5×FAD mice [2]; 5×FAD both sexes) of the same compound?
**A.** 244.3 ± 3.402 s

**Q.** And the average velocity (5×FAD mice [2]; 5×FAD females)?
**A.** 12.03 ± 1.625 cm/s

**Q.** And the hind-limb rearing frequency (5×FAD mice [2]; 5×FAD females)?
**A.** 35.29±4.894

**Q.** What about the “maximum movement bout duration” value (5×FAD mice [2]; 5×FAD females) of the same compound?
**A.** 9.677 ± 3.012 s

**Q.** What about the meandering (5×FAD mice [2]; 5×FAD females) of the same compound?
**A.** 696.3±65.26 deg/cm

**Q.** What about the “proportion of time moving” value (5×FAD mice [2]; 5×FAD females) of the same compound?
**A.** 81.84±1.856%

**Q.** What about the total distance traveled (5×FAD mice [2]; 5×FAD females) of the same compound?
**A.** 3581±484.5 cm

**Q.** What about the total movement duration (5×FAD mice [2]; 5×FAD females) of the same compound?
**A.** 245.5 ± 5.568 s

**Q.** And the average velocity (5×FAD mice [2]; 5×FAD males)?
**A.** 10.01 ± 0.611 cm/s

**Q.** What about the hind-limb rearing frequency (5×FAD mice [2]; 5×FAD males) of the same compound?
**A.** 36.06±4.703

**Q.** And the “maximum movement bout duration” value (5×FAD mice [2]; 5×FAD males)?
**A.** 6.804 s

**Q.** What about the meandering (5×FAD mice [2]; 5×FAD males) of the same compound?
**A.** 762.2±58.17 deg/cm

**Q.** What about the “proportion of time moving” value (5×FAD mice [2]; 5×FAD males) of the same compound?
**A.** 81.13±1.5%

**Q.** What about the total distance traveled (5×FAD mice [2]; 5×FAD males) of the same compound?
**A.** 2983±179.3 cm

**Q.** What about the total movement duration (5×FAD mice [2]; 5×FAD males) of the same compound?
**A.** 243.4 ± 4.5 s

**Q.** And the “freezing in response to the conditioned cue” value (5×FAD mice [3]; 5×FAD both sexes)?
**A.** 16.47±1.689%

**Q.** And the “freezing in response to the conditioned cue” value (5×FAD mice [3]; 5×FAD females)?
**A.** 12.66±1.739%

**Q.** What about the “baseline freezing in conditioning chambers” value (5×FAD mice [3]; 5×FAD males) of the same compound?
**A.** 0.642±0.408%

**Q.** And the “freezing in response to the conditioned context” value (5×FAD mice [3]; 5×FAD males)?
**A.** 39.51±2.666%

**Q.** What about the “freezing in response to the conditioned cue” value (5×FAD mice [3]; 5×FAD males) of the same compound?
**A.** 19.43±2.289%

**Q.** And the novel object discrimination (5×FAD mice [4])?
**A.** 0.06432±0.1285

**Q.** What does the source list for `Cc1cccn2cc(-c3cccc(S(=O)(=O)N4CCC(C)CC4)c3)nc12` [YB-800]?
**A.** IC50 (QR2): 0.02 µM; IC50 at 72 h [5]: 78.4 µM; ROS levels after ROS insult (DCFDA) (HEK293 cells): reduced in a dose dependent manner
